Patent publication US4703058A, “β-methylene furanethanamines and use as anti-hypertensive agents” (Merrell Dow Pharmaceuticals Inc., priority 1986, dated 1987)

Experiments:
[1] = molecular target: T1, dopamine β-hydroxylase (DBH) (Bos taurus, UniProt P15101); test: DBH inhibitory activity - in vitro (time-dependent inactivation; tyramine as substrate, oxygen uptake by polarographic electrode); format: biochemical
T1 sequence (P15101 1-610): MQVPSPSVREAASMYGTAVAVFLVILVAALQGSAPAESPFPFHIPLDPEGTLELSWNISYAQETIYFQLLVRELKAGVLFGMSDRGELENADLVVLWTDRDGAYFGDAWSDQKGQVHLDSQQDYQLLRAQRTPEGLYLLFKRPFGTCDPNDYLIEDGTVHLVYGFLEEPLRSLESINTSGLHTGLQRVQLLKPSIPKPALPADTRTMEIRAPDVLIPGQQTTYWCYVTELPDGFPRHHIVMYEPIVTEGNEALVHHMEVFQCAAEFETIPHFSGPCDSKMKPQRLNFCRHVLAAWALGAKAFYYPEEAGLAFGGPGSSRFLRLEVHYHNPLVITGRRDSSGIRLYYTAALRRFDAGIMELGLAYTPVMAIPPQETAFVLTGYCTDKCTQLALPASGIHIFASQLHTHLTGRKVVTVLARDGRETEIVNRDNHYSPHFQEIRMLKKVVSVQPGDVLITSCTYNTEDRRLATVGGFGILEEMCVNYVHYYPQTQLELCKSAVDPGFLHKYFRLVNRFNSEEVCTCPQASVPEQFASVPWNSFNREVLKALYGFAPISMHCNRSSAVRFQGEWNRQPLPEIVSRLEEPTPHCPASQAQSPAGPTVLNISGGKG
Protocol: The dopamine β-hydroxylase inhibitory properties of the compounds of this invention can readily be determined by standard and well known procedures such as those procedures set forth in U.S. Pat. No. 4,415,191. For example, determination of whether the DBH inhibition allows time-dependent kinetics is exemplified by the procedure wherein enzymatic oxygenation by DBH is determined in aqueous solution in the presence of molecular oxygen, an electron donor such as ascorbate, and the necessary cofactors for the enzyme at a pH of 5 and a temperature of 20°-40° C., preferrably 37° C. The test compound is added at the desired concentration, and the system is incubated. At different time intervals, aliquots are taken and DBH activity is measured using tyramine as the substrate and the reaction followed by measuring the oxygen uptake using a polarographic electrode and an oxygen monitor by the method of S. May et al., J. Biol. Chem. 256, 2258 (1981). The inhibition constants for the inactivation of DBH by each compound are then determined by conventional procedures such as the method of Kitz and Wilson, J. Biol. Chem. 237, 3245 (1962). When the compound shown in Table I was tested according to the above described procedure, the DBH inhibitory activity increased as a function of the time of incubation. The initial rate of decrease of activity increased with increasing concentration of inhibitor. The results in Table I indicate that β-methylene-2-furanethanamine is potent as illustrated by the rapid rate of inactivation (kinact) and low inhibition contant (KI).

hypertensive rats = test: Antihypertensive activity - in vivo (hypertensive rats, blood pressure monitored continuously)
Protocol: The ability of the compounds of this invention to lower blood pressure can be determined in vivo using hypertensive rats according to standard and well known procedures. The test compound is administered intraperitoneally (ip) or orally (po) to rats and the blood pressure monitored continuously. Since DBH is a major enzyme in the synthetic pathway of the catecholamines, it would be expected that the presence of an inhibitor would act to decrease the amount of catecholamines produced, and thereby have an antihypertensive effect.

DBH inhibition, result in words (potency) ([1]; in words, from Table I): potent
Ki ([1]; inactivation of DBH, Kitz and Wilson method, pH 5, 20°-40° C., preferably 37° C., tyramine substrate): 8 mM
kinact ([1]; rate of inactivation of DBH, Kitz and Wilson method, pH 5, 20°-40° C., preferably 37° C., tyramine substrate): 6.67e-05 s⁻¹
SMILES: C=C(CN)c1ccco1 [β-Methylene-2-Furanethanamine]
Maximum % Change Mean Blood Pressure (hypertensive rats; 10 mg/kg (ip)): 18%
Maximum % Change Mean Blood Pressure (hypertensive rats; 30 mg/kg (ip)): 32%
